In patent US20240228458A1, “PYRIMIDINE DERIVATIVE HAVING PROTEIN KINASE INHIBITORY ACTIVITY, AND THERAPEUTIC PHARMACEUTICAL COMPOSITION COMPRISING SAME” (THERAPEX CO., LTD., priority 2021, published 2024):

What was measured:
Format in all cases: cell-based
[1] = tested on: Ba/F3 cells expressing L858R/T790M (EGFR-LT); assay: Growth inhibition (GI50) of Ba/F3 cells expressing L858R/T790M (EGFR-LT), Celltiter glo; conditions: Mus musculus, BaF3, 72 h
In short: (§1)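 Viable-cell luminescence (CellTiter-Glo) after 72 h compound exposure at 37 °C, 5% CO2 gave GI50 (μM, 50% growth inhibition). Compounds were 4-fold serial dilutions, 10 points, from a 2 mM stock, 0.5% DMSO, added 4 h after plating EGFR-variant Ba/F3 cells at 100,000 cells/ml.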

[2] = tested on: Ba/F3 cells expressing EGFR-wt; assay: Growth inhibition (GI50) of Ba/F3 cells expressing EGFR-wt, Celltiter glo; conditions: Mus musculus, BaF3, 72 h
In short: as §1

[3] = tested on: Ba/F3 cells expressing del19/T790M (EGFR-DT); assay: Growth inhibition (GI50) of Ba/F3 cells expressing del19/T790M (EGFR-DT), Celltiter glo; conditions: Mus musculus, BaF3, 72 h
In short: as §1

[4] = tested on: Ba/F3 cells expressing del19/T790M/C797S (EGFR-DTC); assay: Growth inhibition (GI50) of Ba/F3 cells expressing del19/T790M/C797S (EGFR-DTC), Celltiter glo; conditions: Mus musculus, BaF3, 72 h
In short: as §1

[5] = tested on: Ba/F3 cells expressing L858R/T790M/C797S (EGFR-LTC); assay: Growth inhibition (GI50) of Ba/F3 cells expressing L858R/T790M/C797S (EGFR-LTC), Celltiter glo; conditions: Mus musculus, BaF3, 72 h
In short: as §1

parental Ba/F3 cell line = assay: Growth inhibition (GI50) of the parental Ba/F3 cell line (not introduced with EGFR variants), Celltiter glo; conditions: Mus musculus, BaF3, 72 h, parental Ba/F3 cells
In short: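 Viable cell count by CellTiter-Glo after 72 h at 37 °C gave GI50 values (μM, 50% growth inhibition). Cells lacking EGFR variants were seeded at 100,000 cells/ml and dosed 4 h later with 4-fold serial dilutions from a 2 mM stock, 0.5% DMSO.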

Row | GI50 [1] | GI50 [2] | GI50 [3] | GI50 [4] | GI50 [5] | Compound | GI50 (parental Ba/F3 cell line)
1 | 100 to 500 nM | 100 to 500 nM | 1 to 25 nM | 25 to 100 nM | 100 to 500 nM | Cc1cc(Nc2ncc(Cl)c(Nc3cc4c(cc3NS(C)(=O)=O)CCO4)n2)c(Cl)cc1N1CCC(N2CCCC(N(C)C)C2)CC1 (stereo not drawn) [Example 197, N-(6-((5-chloro-2-((2-chloro-4-(3-(dimethylamino)-[1,4′-bipiperidin]-1′-yl)-5-methylphenyl)amino)pyrimidin-4-yl)amino)-2,3-dihydrobenzofuran-5-yl)methanesulfonamide] | 2000 to 10000 nM
2 | 25 to 100 nM | 100 to 500 nM | 1 to 25 nM | 1 to 25 nM | 1 to 25 nM | COc1ccc(NS(C)(=O)=O)c(Nc2nc(Nc3cc(C)c(N4CCC(N5CCN(C)CC5)CC4)cc3OC)ncc2Cl)c1 [Example 199, N-(2-((5-chloro-2-((2-methoxy-5-methyl-4-(4-(4-methylpiperazin-1-yl)piperidin-1-yl)phenyl)amino)pyrimidin-4-yl)amino)-4-methoxyphenyl)methanesulfonamide] | 100 to 500 nM
3 | 25 to 100 nM | 100 to 500 nM | 1 to 25 nM | 25 to 100 nM | 25 to 100 nM | COc1ccc(NS(C)(=O)=O)c(Nc2nc(Nc3cc(C)c(N4CCC(N5CCN(C)CC5)CC4)cc3Cl)ncc2Cl)c1 [Example 200, N-(2-((5-chloro-2-((2-chloro-5-methyl-4-(4-(4-methylpiperazin-1-yl)piperidin-1-yl)phenyl)amino)pyrimidin-4-yl)amino)-4-methoxyphenyl)methanesulfonamide] | 100 to 500 nM
4 | 1 to 25 nM | 1 to 25 nM | 1 to 25 nM | 1 to 25 nM | 1 to 25 nM | COc1ccc(NS(C)(=O)=O)c(Nc2nc(Nc3cc(Cl)c(N4CCC(N5CCN(C)CC5)CC4)cc3OC)ncc2Cl)c1 [Example 201, N-(2-((5-chloro-2-((5-chloro-2-methoxy-4-(4-(4-methylpiperazin-1-yl)piperidin-1-yl)phenyl)amino)pyrimidin-4-yl)amino)-4-methoxyphenyl)methanesulfonamide] | 25 to 100 nM
5 | 25 to 100 nM | 100 to 500 nM | 1 to 25 nM | 25 to 100 nM | 25 to 100 nM | COc1ccc(NS(C)(=O)=O)c(Nc2nc(Nc3cc(Cl)c(N4CCC(N5CCN(C)CC5)CC4)cc3Cl)ncc2Cl)c1 [Example 202, N-(2-((5-chloro-2-((2,5-dichloro-4-(4-(4-methylpiperazin-1-yl)piperidin-1-yl)phenyl)amino)pyrimidin-4-yl)amino)-4-methoxyphenyl)methanesulfonamide] | 100 to 500 nM
6 | 100 to 500 nM | 500 to 2000 nM | 1 to 25 nM | 25 to 100 nM | 25 to 100 nM | CCc1cc(Nc2ncc(Cl)c(Nc3cc(OC)ccc3NS(C)(=O)=O)n2)c(OC)cc1N1CCC(N2CCN(C)CC2)CC1 [Example 203, N-(2-((5-chloro-2-((5-ethyl-2-methoxy-4-(4-(4-methylpiperazin-1-yl)piperidin-1-yl)phenyl)amino)pyrimidin-4-yl)amino)-4-methoxyphenyl)methanesulfonamide] | 2000 to 10000 nM
7 | 25 to 100 nM | 25 to 100 nM | 1 to 25 nM | 1 to 25 nM | 25 to 100 nM | COc1ccc(NS(C)(=O)=O)c(Nc2nc(Nc3cc(C)c(N4CCC(N5CCCN(C)CC5)CC4)cc3OC)ncc2Cl)c1 [Example 204, N-(2-((5-chloro-2-((2-methoxy-5-methyl-4-(4-(4-methyl-1,4-diazepan-1-yl)piperidin-1-yl)phenyl)amino)pyrimidin-4-yl)amino)-4-methoxyphenyl)methanesulfonamide] | 2000 to 10000 nM
8 | 1 to 25 nM | 25 to 100 nM | 1 to 25 nM | 1 to 25 nM | 1 to 25 nM | CN1CCN(C2CCN(c3cc(Cl)c(Nc4ncc(Cl)c(Nc5cc6c(cc5NS(C)(=O)=O)CCO6)n4)cc3Cl)CC2)CC1 [Example 205, N-(6-((5-chloro-2-((2,5-dichloro-4-(4-(4-methylpiperazin-1-yl)piperidin-1-yl)phenyl)amino)pyrimidin-4-yl)amino)-2,3-dihydrobenzofuran-5-yl)methanesulfonamide] | 2000 to 10000 nM
9 | 1 to 25 nM | 100 to 500 nM | 1 to 25 nM | 1 to 25 nM | 25 to 100 nM | CCc1cc(Nc2ncc(Cl)c(Nc3cc4c(cc3NS(C)(=O)=O)CCO4)n2)c(OC)cc1N1CCC(N2CCN(C)CC2)CC1 [Example 206, N-(6-((5-chloro-2-((5-ethyl-2-methoxy-4-(4-(4-methylpiperazin-1-yl)piperidin-1-yl)phenyl)amino)pyrimidin-4-yl)amino)-2,3-dihydrobenzofuran-5-yl)methanesulfonamide] | 2000 to 10000 nM
10 | 1 to 25 nM | 100 to 500 nM | 25 to 100 nM | 25 to 100 nM | 25 to 100 nM | COc1cc(N2CCC(N3CCNCC3)CC2)c(C)cc1Nc1ncc(Cl)c(Nc2cc3c(cc2NS(C)(=O)=O)CCO3)n1 [Example 207, N-(6-((5-chloro-2-((2-methoxy-5-methyl-4-(4-(piperazin-1-yl)piperidin-1-yl)phenyl)amino)pyrimidin-4-yl)amino)-2,3-dihydrobenzofuran-5-yl)methanesulfonamide] | 2000 to 10000 nM
11 | 1 to 25 nM | 100 to 500 nM | 1 to 25 nM | 1 to 25 nM | 25 to 100 nM | COc1cc(N2CCC(N3CCN(C4CC4)CC3)CC2)c(C)cc1Nc1ncc(Cl)c(Nc2cc3c(cc2NS(C)(=O)=O)CCO3)n1 [Example 208, N-(6-((5-chloro-2-((4-(4-(4-cyclopropylpiperazin-1-yl)piperidin-1-yl)-2-methoxy-5-methylphenyl)amino)pyrimidin-4-yl)amino)-2,3-dihydrobenzofuran-5-yl)methanesulfonamide] | 2000 to 10000 nM
12 | 1 to 25 nM | 100 to 500 nM | 25 to 100 nM | 1 to 25 nM | 25 to 100 nM | COc1cc(N2CCC(N3CCC(N(C)C)C3)CC2)c(C)cc1Nc1ncc(Cl)c(Nc2cc3c(cc2NS(C)(=O)=O)CCO3)n1 (stereo not drawn) [Example 209, N-(6-((5-chloro-2-((4-(4-(3-(dimethylamino)pyrrolidin-1-yl)piperidin-1-yl)-2-methoxy-5-methylphenyl)amino)pyrimidin-4-yl)amino)-2,3-dihydrobenzofuran-5-yl)methanesulfonamide] | 2000 to 10000 nM
13 | 25 to 100 nM | 500 to 2000 nM | 25 to 100 nM | 100 to 500 nM | 25 to 100 nM | Cc1cc(Nc2ncc(Cl)c(Nc3cc4c(cc3NS(C)(=O)=O)CCO4)n2)c(Cl)cc1N1CCC(N2CCC(N(C)C)C2)CC1 (stereo not drawn) [Example 210, N-(6-((5-chloro-2-((2-chloro-4-(4-(3-(dimethylamino)pyrrolidin-1-yl)piperidin-1-yl)-5-methylphenyl)amino)pyrimidin-4-yl)amino)-2,3-dihydrobenzofuran-5-yl)methanesulfonamide] | 2000 to 10000 nM
14 | 25 to 100 nM | 100 to 500 nM | 1 to 25 nM | 25 to 100 nM | 1 to 25 nM | COc1cc(N2CCC(N3CCC(N(C)C)C3)CC2)c(C)cc1Nc1ncc(Br)c(Nc2cc3c(cc2NS(C)(=O)=O)CCO3)n1 (stereo not drawn) [Example 211, N-(6-((5-bromo-2-((4-(4-(3-(dimethylamino)pyrrolidin-1-yl)piperidin-1-yl)-2-methoxy-5-methylphenyl)amino)pyrimidin-4-yl)amino)-2,3-dihydrobenzofuran-5-yl)methanesulfonamide] | 2000 to 10000 nM
